As usually defined, the melting point is the temperature of the solid-liquid transition.

Molecule `O=C1[C@H](CCCc2ccc(F)cc2)[C@@H](c2ccc(C3O[C@H](CO)[C@@H](O)[C@H](O)[C@H]3O)cc2)N1c1ccc(F)cc1` (stereo partly drawn) [Compound 1] registered a melting point of 89 to 90 °C.
The result for `O=C1[C@H](CCCc2ccc(F)cc2)[C@@H](c2ccc(C[C@@H]3O[C@H](CO)[C@@H](O)[C@H](O)[C@H]3O)cc2)N1c1ccc(F)cc1` [Compound 2] reads 110 to 112 °C; that for `CC(=O)OC[C@H]1O[C@@H](Cc2ccc([C@@H]3[C@@H](CCCc4ccc(F)cc4)C(=O)N3c3ccc(F)cc3)cc2)[C@H](OC(C)=O)[C@@H](OC(C)=O)[C@@H]1OC(C)=O` [Compound 3], 56 to 58 °C.
Next, `O=C1[C@H](CCCc2ccc(F)cc2)[C@@H](c2ccc(C[C@@H]3O[C@H](CO)[C@@H](O)[C@H](O)[C@H]3O)cc2)N1c1ccc(Cl)cc1` [Compound 4]: 76 to 78 °C.
Molecule `COc1ccc(N2C(=O)[C@H](CCCc3ccc(F)cc3)[C@H]2c2ccc(C[C@@H]3O[C@H](CO)[C@@H](O)[C@H](O)[C@H]3O)cc2)cc1` [Compound 5] registered a melting point of 73 to 75 °C.
For the molecule `COc1ccc(N2C(=O)[C@H](CCCc3ccc(F)cc3)[C@H]2c2ccc(C[C@@H]3O[C@H](COC(C)=O)[C@@H](OC(C)=O)[C@H](OC(C)=O)[C@H]3OC(C)=O)cc2)cc1` [Compound 6], the melting point was 60 to 62 °C.
`Cc1ccc(N2C(=O)[C@H](CCCc3ccc(F)cc3)[C@H]2c2ccc(C[C@@H]3O[C@H](CO)[C@@H](O)[C@H](O)[C@H]3O)cc2)cc1` [Compound 7] showed a melting point of 80 to 82 °C.
In turn, `CC(=O)OC[C@H]1O[C@@H](Cc2ccc([C@@H]3[C@@H](CCCc4ccc(F)cc4)C(=O)N3c3ccc(C)cc3)cc2)[C@H](OC(C)=O)[C@@H](OC(C)=O)[C@@H]1OC(C)=O` [Compound 8] returned a melting point of 56 to 58 °C.
The result for `O=C1[C@H](CCCc2ccc(F)cc2)[C@@H](c2ccc(C[C@@H]3O[C@H](CO)[C@@H](O)[C@H](O)[C@H]3O)cc2)N1c1ccccc1` [Compound 9] reads 84 to 86 °C; that for `CC(=O)OC[C@H]1O[C@@H](Cc2ccc([C@@H]3[C@@H](CCCc4ccc(F)cc4)C(=O)N3c3ccccc3)cc2)[C@H](OC(C)=O)[C@@H](OC(C)=O)[C@@H]1OC(C)=O` [Compound 10], 60 to 61 °C; that for `O=C1[C@H](CCCc2ccccc2)[C@@H](c2ccc(C[C@@H]3O[C@H](CO)[C@@H](O)[C@H](O)[C@H]3O)cc2)N1c1ccc(F)cc1` [Compound 11], 74 to 75 °C.
The molecule `O=C1[C@H](CCOc2ccc(F)cc2)[C@@H](c2ccc(C[C@@H]3O[C@H](CO)[C@@H](O)[C@H](O)[C@H]3O)cc2)N1c1ccc(F)cc1` [Compound 12] gave a melting point of 65 to 67 °C.
The result for `CC(=O)OC[C@H]1O[C@@H](Cc2ccc([C@@H]3[C@@H](CCOc4ccc(F)cc4)C(=O)N3c3ccc(F)cc3)cc2)[C@H](OC(C)=O)[C@@H](OC(C)=O)[C@@H]1OC(C)=O` [Compound 13] reads 64 to 66 °C; that for `O=C1[C@H](CCCc2ccc(F)cc2)[C@@H](c2ccc(OC[C@@H]3O[C@H](CO)[C@@H](O)[C@H](O)[C@H]3O)cc2)N1c1ccc(F)cc1` [Compound 14], 61 to 62 °C; that for `O=C1[C@H](CCOc2ccc(F)cc2)[C@@H](c2ccc(OC[C@@H]3O[C@H](CO)[C@@H](O)[C@H](O)[C@H]3O)cc2)N1c1ccc(F)cc1` [Compound 15], 64 to 65 °C.
`O=C1[C@H](CCCc2ccc(F)cc2)[C@@H](c2ccc(OC[C@@H]3O[C@H](CO)[C@@H](O)[C@H](O)[C@H]3O)cc2)N1Cc1ccccc1` [Compound 16]: the melting point fell in the range of 73 to 75 °C.
The result for `O=C(O)[C@H]1O[C@@H](Cc2ccc([C@@H]3[C@@H](CCCc4ccc(F)cc4)C(=O)N3c3ccc(F)cc3)cc2)[C@H](O)[C@@H](O)[C@@H]1O` [Compound 17] reads 105 to 106 °C; that for `CCOC(=O)C(C)(C)Oc1ccc(N2C(=O)[C@H](CCCc3ccc(F)cc3)[C@H]2c2ccc(C[C@@H]3O[C@H](CO)[C@@H](O)[C@H](O)[C@H]3O)cc2)cc1` [Compound 18], 73 to 74 °C; that for `CC(C)(Oc1ccc(N2C(=O)[C@H](CCCc3ccc(F)cc3)[C@H]2c2ccc(C[C@@H]3O[C@H](CO)[C@@H](O)[C@H](O)[C@H]3O)cc2)cc1)C(=O)O` [Compound 19], 170 to 172 °C.
In turn, `CCOC(=O)C(C)(C)Oc1ccc(N2C(=O)[C@H](CCCc3ccc(C)cc3)[C@H]2c2ccc(C[C@@H]3O[C@H](CO)[C@@H](O)[C@H](O)[C@H]3O)cc2)cc1` [Compound 20] returned a melting point of 76 to 78 °C.
The result for `Cc1ccc(CCC[C@H]2C(=O)N(c3ccc(OC(C)(C)C(=O)O)cc3)[C@@H]2c2ccc(C[C@@H]3O[C@H](CO)[C@@H](O)[C@H](O)[C@H]3O)cc2)cc1` [Compound 21] reads 161 to 162 °C; that for `O=C1[C@H](CC[C@H](O)c2ccc(F)cc2)[C@@H](c2ccc(C[C@@H]3O[C@H](CO)[C@@H](O)[C@H](O)[C@H]3O)cc2)N1c1ccc(F)cc1` [Compound 22], 115 to 117 °C.
As to `O=C1[C@H](CC[C@H](O)c2ccc(F)cc2)[C@@H](c2ccc(C[C@@H]3O[C@H](CO)[C@@H](O)[C@H](O)[C@H]3O)cc2)N1c1ccccc1` [Compound 23], the melting point lay in the range of 104 to 106 °C.
`Cc1ccc(N2C(=O)[C@H](CC[C@H](O)c3ccc(F)cc3)[C@H]2c2ccc(C[C@@H]3O[C@H](CO)[C@@H](O)[C@H](O)[C@H]3O)cc2)cc1` [Compound 24] returned a melting point of 102 to 104 °C.
In turn, `O=C1[C@H](CCCc2ccc(F)cc2)[C@@H](c2ccc(C[C@@H]3O[C@H](CO)[C@@H](O)[C@H](O)[C@H]3O)cc2)N1c1ccc(F)cc1` [Compound 25] returned a melting point of 67 to 69 °C.
Take `O=C(CC[C@H]1C(=O)N(c2ccc(F)cc2)[C@@H]1c1ccc(C[C@@H]2O[C@H](CO)[C@@H](O)[C@H](O)[C@H]2O)cc1)c1ccc(F)cc1` [Compound 26]: the melting point was in the range of 78 to 80 °C.
As for `O=C(CC[C@H]1C(=O)N(c2ccccc2)[C@@H]1c1ccc(C[C@@H]2O[C@H](CO)[C@@H](O)[C@H](O)[C@H]2O)cc1)c1ccc(F)cc1` [Compound 27], the melting point fell in the range of 104 to 106 °C.
The result for `Cc1ccc(N2C(=O)[C@H](CCC(=O)c3ccc(F)cc3)[C@H]2c2ccc(C[C@@H]3O[C@H](CO)[C@@H](O)[C@H](O)[C@H]3O)cc2)cc1` [Compound 28] reads 86 to 88 °C; that for `O=C(O)c1ccc(N2C(=O)[C@H](CC[C@H](O)c3ccc(F)cc3)[C@H]2c2ccc(C[C@@H]3O[C@H](CO)[C@@H](O)[C@H](O)[C@H]3O)cc2)cc1` [Compound 29], 148 to 150 °C; that for `O=C(O)c1ccc(N2C(=O)[C@H](CCC(=O)c3ccc(F)cc3)[C@H]2c2ccc(C[C@@H]3O[C@H](CO)[C@@H](O)[C@H](O)[C@H]3O)cc2)cc1` [Compound 30], 102 to 104 °C.
For the molecule `O=C(O)c1ccc(N2C(=O)[C@H](CCCc3ccc(F)cc3)[C@H]2c2ccc(C[C@@H]3O[C@H](CO)[C@@H](O)[C@H](O)[C@H]3O)cc2)cc1` [Compound 31], the melting point lay in the range of 97 to 99 °C.
The molecule `O=C(O)[C@H]1O[C@@H](Cc2ccc([C@@H]3[C@@H](CC[C@H](O)c4ccc(F)cc4)C(=O)N3c3ccc(F)cc3)cc2)[C@H](O)[C@@H](O)[C@@H]1O` [Compound 33] had a melting point of 82 to 84 °C.
As for `O=C(CC[C@H]1C(=O)N(c2ccc(F)cc2)[C@@H]1c1ccc([C@@H]2O[C@H](CO)[C@@H](O)[C@H](O)[C@H]2O)cc1)c1ccc(F)cc1` [Compound 34], the melting point fell in the range of 83 to 85 °C.
The result for `O=C1[C@H](CC[C@H](O)c2ccc(F)cc2)[C@@H](c2ccc([C@@H]3O[C@H](CO)[C@@H](O)[C@H](O)[C@H]3O)cc2)N1c1ccc(F)cc1` [Compound 35] reads 81 to 83 °C; that for `Cc1ccc(N2C(=O)[C@H](CC[C@H](O)c3ccc(F)cc3)[C@H]2c2ccc([C@@H]3O[C@H](CO)[C@@H](O)[C@H](O)[C@H]3O)cc2)cc1` [Compound 36], 79 to 81 °C; that for `O=C1[C@H](CC[C@H](O)c2ccc(F)cc2)[C@@H](c2ccc(F)cc2)N1c1ccc(C[C@@H]2O[C@H](CO)[C@@H](O)[C@H](O)[C@H]2O)cc1` [Compound 38], 200 to 201 °C.
Molecule `O=C1[C@H](CC[C@H](O)c2ccc(C[C@@H]3O[C@H](CO)[C@@H](O)[C@H](O)[C@H]3O)cc2)[C@@H](c2ccc(F)cc2)N1c1ccc(F)cc1` [Compound 39] came in with a melting point of 126 to 128 °C.
`O=C1[C@H](CCCc2ccc(F)cc2)[C@H](c2ccc(C[C@@H]3O[C@H](CO)[C@@H](O)[C@H](O)[C@H]3O)cc2)N1c1ccc(F)cc1` [Compound 40]: the melting point was 78 to 80 °C.
In the case of `O=C1[C@H](CC[C@H](O)c2ccccc2)[C@@H](c2ccc(C[C@@H]3O[C@H](CO)[C@@H](O)[C@H](O)[C@H]3O)cc2)N1c1ccccc1` [Compound 41], the melting point fell in the range of 110 to 112 °C.
Molecule `CCOC(=O)c1ccc(N2C(=O)[C@H](CC[C@H](O)c3ccc(F)cc3)[C@H]2c2ccc(C[C@@H]3O[C@H](CO)[C@@H](O)[C@H](O)[C@H]3O)cc2)cc1` [Compound 42] yielded a melting point of 56 to 58 °C.
On to `Cc1ccc(N2C(=O)[C@H](CCOc3ccc(F)cc3)[C@H]2c2ccc(C[C@@H]3O[C@H](CO)[C@@H](O)[C@H](O)[C@H]3O)cc2)cc1` [Compound 43], for which the melting point lay in the range of 96 to 98 °C.
Take `O=C1[C@H](CCCc2ccccc2)[C@@H](c2ccc(C[C@@H]3O[C@H](CO)[C@@H](O)[C@H](O)[C@H]3O)cc2)N1c1ccccc1` [Compound 44]: the melting point is 84 to 86 °C.
The result for `O=C1[C@H](CC[C@H](O)c2ccc(F)cc2)[C@@H](c2ccc(/C=C/[C@@H]3O[C@H](CO)[C@@H](O)[C@H](O)[C@H]3O)cc2)N1c1ccc(F)cc1` [Compound 45] reads 84 to 86 °C.
The molecule `O=C1[C@H](CC[C@H](O)c2ccc(F)cc2)[C@@H](c2ccc(CC[C@@H]3O[C@H](CO)[C@@H](O)[C@H](O)[C@H]3O)cc2)N1c1ccc(F)cc1` [Compound 46] registered a melting point of 153 to 155 °C.
In the case of `O=C1[C@H](CC[C@H](O)c2ccc(F)cc2)[C@@H](c2ccc(/C=C/C[C@@H]3O[C@H](CO)[C@@H](O)[C@H](O)[C@H]3O)cc2)N1c1ccc(F)cc1` [Compound 47], the melting point lay in the range of 72 to 74 °C.
